Reference: the supplement of paper PMC10307832

Experiments:
Assay in all cases: relative viability (nuclei count vs DMSO), 5 days (fraction); higher = more cells survive
HCC-15 = system: HCC-15
Procedure, shortened: (§1)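 Lung cancer cell lines were seeded in 1536-well plates and dosed by pin tool the next day, with either a single drug or a fixed anchor-drug dose combined with five library-drug doses (not always all listed) spaced in √10 steps. Five days later, one step fixed the cells and stained their nuclei (final 0.05% Triton X-100, 1% formaldehyde, 1 ug/ml Hoechst), and nuclei were counted on 4× images. Relative viability is the nuclei count in treated wells divided by the count in vehicle wells, and each value is the median of duplicate plates.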

NCI-H1993 = system: NCI-H1993
Procedure, shortened: as §1

NCI-H358 = system: NCI-H358
Procedure, shortened: as §1

ChaGo-K-1 = system: ChaGo-K-1
Procedure, shortened: as §1

HARA = system: HARA
Procedure, shortened: as §1

NCI-H1793 = system: NCI-H1793
Procedure, shortened: as §1

COR-L23 = system: COR-L23
Procedure, shortened: as §1

NCI-H2228 = system: NCI-H2228
Procedure, shortened: as §1

HCC-78 = system: HCC-78
Procedure, shortened: as §1

NCI-H2405 = system: NCI-H2405
Procedure, shortened: as §1

SK-LU-1 = system: SK-LU-1
Procedure, shortened: as §1

NCI-H2126 = system: NCI-H2126
Procedure, shortened: as §1

NCI-H1395 = system: NCI-H1395
Procedure, shortened: as §1

LC-2-ad = system: LC-2-ad
Procedure, shortened: as §1

NCI-H1944 = system: NCI-H1944
Procedure, shortened: as §1

HCC-366 = system: HCC-366
Procedure, shortened: as §1

HOP-62 = system: HOP-62
Procedure, shortened: as §1

EMC-BAC-2 = system: EMC-BAC-2
Procedure, shortened: as §1

NCI-H23 = system: NCI-H23
Procedure, shortened: as §1

NCI-H838 = system: NCI-H838
Procedure, shortened: as §1

NCI-H2023 = system: NCI-H2023
Procedure, shortened: as §1

Structure (SMILES): COc1nc(C)cnc1NS(=O)(=O)c1cccnc1-c1ccc(-c2nnco2)cc1 [Zibotentan] + Nc1nc2[nH]cc(CCc3ccc(C(=O)N[C@@H](CCC(=O)O)C(=O)O)cc3)c2c(=O)[nH]1 [Pemetrexed] (partner 0.2 µM)
- relative viability (HCC-15; first compound 0.08 µM): 0.221
- relative viability (HCC-15; first compound 0.253 µM): 0.22
- relative viability (HCC-15; first compound 0.8 µM): 0.217
- relative viability (HCC-15; first compound 2.53 µM): 0.227
- relative viability (NCI-H1993; first compound 0.08 µM): 0.695
- relative viability (NCI-H1993; first compound 0.253 µM): 0.557
- relative viability (NCI-H1993; first compound 0.8 µM): 0.557
- relative viability (NCI-H1993; first compound 2.53 µM): 0.545
- relative viability (NCI-H358; first compound 0.08 µM): 0.189
- relative viability (NCI-H358; first compound 0.253 µM): 0.141
- relative viability (NCI-H358; first compound 2.53 µM): 0.184
- relative viability (ChaGo-K-1; first compound 0.08 µM): 0.261
- relative viability (ChaGo-K-1; first compound 0.253 µM): 0.258
- relative viability (ChaGo-K-1; first compound 0.8 µM): 0.275
- relative viability (ChaGo-K-1; first compound 2.53 µM): 0.351
- relative viability (HARA; first compound 0.08 µM): 0.247
- relative viability (HARA; first compound 0.8 µM): 0.183
- relative viability (HARA; first compound 2.53 µM): 0.292
- relative viability (NCI-H1793; first compound 0.08 µM): 0.942
- relative viability (NCI-H1793; first compound 0.253 µM): 0.785
- relative viability (NCI-H1793; first compound 0.8 µM): 0.799
- relative viability (NCI-H1793; first compound 2.53 µM): 1.08
- relative viability (COR-L23; first compound 0.08 µM): 0.214
- relative viability (COR-L23; first compound 0.253 µM): 0.185
- relative viability (COR-L23; first compound 0.8 µM): 0.207
- relative viability (COR-L23; first compound 2.53 µM): 0.204
- relative viability (NCI-H2228; first compound 0.08 µM): 0.323
- relative viability (NCI-H2228; first compound 0.253 µM): 0.33
- relative viability (NCI-H2228; first compound 0.8 µM): 0.291
- relative viability (NCI-H2228; first compound 2.53 µM): 0.346
- relative viability (HCC-78; first compound 0.08 µM): 0.876
- relative viability (HCC-78; first compound 0.253 µM): 0.892
- relative viability (HCC-78; first compound 0.8 µM): 0.877
- relative viability (HCC-78; first compound 2.53 µM): 0.889
- relative viability (NCI-H2405; first compound 0.08 µM): 1.15
- relative viability (NCI-H2405; first compound 0.253 µM): 0.975
- relative viability (NCI-H2405; first compound 0.8 µM): 1.06
- relative viability (NCI-H2405; first compound 2.53 µM): 1.21
- relative viability (SK-LU-1; first compound 0.08 µM): 0.95
- relative viability (SK-LU-1; first compound 0.253 µM): 0.705
- relative viability (SK-LU-1; first compound 0.8 µM): 1.01
- relative viability (SK-LU-1; first compound 2.53 µM): 0.99
- relative viability (NCI-H2126; first compound 0.08 µM): 0.713
- relative viability (NCI-H2126; first compound 0.253 µM): 0.657
- relative viability (NCI-H2126; first compound 0.8 µM): 0.435
- relative viability (NCI-H2126; first compound 2.53 µM): 0.78
- relative viability (NCI-H1395; first compound 0.08 µM): 1.01
- relative viability (NCI-H1395; first compound 0.253 µM): 0.801
- relative viability (NCI-H1395; first compound 0.8 µM): 0.81
- relative viability (NCI-H1395; first compound 2.53 µM): 0.901
- relative viability (LC-2-ad; first compound 0.08 µM): 0.251
- relative viability (LC-2-ad; first compound 0.253 µM): 0.286
- relative viability (LC-2-ad; first compound 0.8 µM): 0.27
- relative viability (LC-2-ad; first compound 2.53 µM): 0.274
- relative viability (NCI-H1944; first compound 0.08 µM): 0.769
- relative viability (NCI-H1944; first compound 0.253 µM): 0.584
- relative viability (NCI-H1944; first compound 0.8 µM): 0.61
- relative viability (NCI-H1944; first compound 2.53 µM): 0.732
- relative viability (HCC-366; first compound 0.08 µM): 0.163
- relative viability (HCC-366; first compound 0.253 µM): 0.179
- relative viability (HCC-366; first compound 0.8 µM): 0.0897
- relative viability (HCC-366; first compound 2.53 µM): 0.147
- relative viability (HOP-62; first compound 0.08 µM): 0.319
- relative viability (HOP-62; first compound 0.253 µM): 0.408
- relative viability (HOP-62; first compound 0.8 µM): 0.281
- relative viability (HOP-62; first compound 2.53 µM): 0.352
- relative viability (EMC-BAC-2; first compound 0.08 µM): 0.457
- relative viability (EMC-BAC-2; first compound 0.8 µM): 0.406
- relative viability (EMC-BAC-2; first compound 2.53 µM): 0.44
- relative viability (NCI-H23; first compound 0.08 µM): 0.738
- relative viability (NCI-H23; first compound 0.253 µM): 0.395
- relative viability (NCI-H23; first compound 0.8 µM): 0.456
- relative viability (NCI-H23; first compound 2.53 µM): 0.915
- relative viability (NCI-H838; first compound 0.08 µM): 0.249
- relative viability (NCI-H838; first compound 0.253 µM): 0.234
- relative viability (NCI-H838; first compound 0.8 µM): 0.23
- relative viability (NCI-H838; first compound 2.53 µM): 0.252
- relative viability (NCI-H2023; first compound 0.08 µM): 0.243
- relative viability (NCI-H2023; first compound 0.8 µM): 0.225
- relative viability (NCI-H2023; first compound 2.53 µM): 0.251
